Data reported in PubChem BioAssay (NCI).
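How tested: cells in 96-well plates exposed to compound for 48 hours at five concentrations. At the TGI there is no net growth.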

Key:
Assay in all cases: DTP human tumour cell line panel, 48 h
[1] = test system: MCF7 breast
[2] = test system: OVCAR-4 ovarian
[3] = test system: MALME-3M melanoma
[4] = test system: KM20L2 colon
[5] = test system: K-562 leukemia
[6] = test system: MOLT-4 leukemia
[7] = test system: IGROV1 ovarian
[8] = test system: SNB-19 CNS
[9] = test system: HT29 colon
[10] = test system: DMS 114 small cell lung
[11] = test system: EKVX NSCLC
[12] = test system: HL-60(TB) leukemia
[13] = test system: SF-539 CNS
[14] = test system: CCRF-CEM leukemia
[15] = test system: SK-MEL-2 melanoma
[16] = test system: NCI/ADR-RES ovarian
[17] = test system: CAKI-1 renal
[18] = test system: MDA-MB-435
[19] = test system: HS 578T breast
[20] = test system: MDA-N

SMILES | TGI [1] [µM] | TGI [2] [µM] | TGI [3] [µM] | TGI [4] [µM] | TGI [5] [µM] | TGI [6] [µM] | TGI [7] [µM] | TGI [8] [µM] | TGI [9] [µM] | TGI [10] [µM] | TGI [11] [µM] | TGI [12] [µM] | TGI [13] [µM] | TGI [14] [µM] | TGI [15] [µM] | TGI [16] [µM] | TGI [17] [µM] | TGI [18] [µM] | TGI [19] [µM] | TGI [20] [µM]
Cc1[nH]c(=O)[nH]c(=O)c1/C=C/C(=O)NC(CO)CC(C)C (stereo not drawn) | > 375 | > 375 | > 375 | > 237 | > 237 | > 211 | > 375 | > 375 | > 375 | > 375 | > 375 | > 375 | > 375 | > 375 | > 375 | > 375 | 310 | – | – | –
CCOC(=O)/C=C/CC(C)(C)COC(C)=O | > 10 | > 10 | – | – | > 10 | > 10 | – | – | – | – | – | > 10 | – | > 10 | > 10 | > 10 | – | > 10 | > 10 | > 10
CC(C)=CCc1c(O)cc(O)c2c1OC(c1ccc(O)cc1)C(O)C2=O (stereo not drawn) | – | > 100 | 70.4 | 32.5 | > 100 | – | 88.9 | > 100 | 40.3 | > 100 | 56.3 | – | 35.5 | – | 50.9 | – | – | – | – | –
CCOC(=O)C1(CO)CSCCSC1 | > 100 | – | – | – | > 100 | > 100 | – | > 100 | > 100 | – | – | – | – | > 100 | – | > 100 | – | > 100 | > 100 | > 100
CCC(C)C(=O)OC1C(=O)OC2CC3C(C)=CC(=O)C(O)C3(C)C3C4(O)OCC23C1C(C)C4O (stereo not drawn) | > 100 | 0.262 | < 0.021 | – | – | – | 0.175 | – | – | – | – | – | 0.0315 | 0.0393 | 0.184 | 6.47 | 7.44 | 0.0723 | 0.275 | 0.232
CC(=O)OC1C=C(C=O)C(O)(C=O)C2(C)CCCC(C)(C)C12 (stereo not drawn) | 5.49 | 4.01 | 2.33 | 5.11 | 1.73 | 0.629 | 6.05 | 12 | 3.65 | 2.24 | 6.13 | 0.895 | 5.74 | 0.706 | 6.81 | 5.57 | 3.15 | – | – | –
